Key:
A375P cells [1] = test: ATP assay after 2,4-DNP; format: cell-based; details: 50 μg/mL, 24 h
Method: (§1) FIG. 7D are histograms showing the effects of 2,4-DNP (50 μg/mL, 24 h) on ATP in the indicated cell lines in vitro.
(§2) Glucose uptake (relative to total cell numbers) was measured over 24 h as trace [^3H]-deoxyglucose uptake in cells growing in glucose-containing media followed by plate harvest and subsequent analysis on a PerkinElmer® Wallac 1450 Microbeta scintillation counter. Oxygen consumption was measured using XF Flux Analyzer (Seahorse Biosciences) using standard protocols. ATP measurements were conducted using ENLITEN® ATP assay (PROMEGA®) according to standard trichloroacetic acid (TCA) extraction protocols.

UACC257 cells [2] = test: ATP assay after 2,4-DNP; format: cell-based; details: 50 μg/mL, 24 h
Method: as §1, §2

[3] = tested on: BRAF(V600E)+vector and BRAF(V600E)+MITF melanoma cells; test: Cell number after 2,4-DNP in isogenic cells; format: cell-based, human; details: 72 h
Method: FIG. 7A are histograms showing the number of BRAF(V600E)+vector and BRAF(V600E)+MITF melanoma cells following treatment with 2,4-DNP with indicated dose for 72 h.
(§3) Indicated cell lines were plated in complete media overnight. […] Results were normalized to cell number. All assays were performed in logarithmically growing cells.

[4] = tested on: melanoma cells or primary human melanocytes; test: Cell number after 2,4-DNP, melanoma cells versus melanocytes; format: cell-based; details: 50 μg/mL, 72 h
Method: FIG. 13 are histograms showing the number of melanoma cells or primary human melanocytes following treatment with 2,4-DNP (50 μg/mL) for 72 h. **, p<0.01 compared to primary melanocytes treated with 2,4-DNP.
as §3

UACC257 xenografts = test: Xenograft tumor study; format: in vivo, mice; details: 2,4-DNP 20 mg/kg/day or vemurafenib 75 mg/kg/day by oral gavage
melanoma cells (M14) = test: Cell number, mitochondrial inhibitors combined with PLX4720; details: in vitro; cell number after 72 hrs
Method: (§4) Melanoma cell were treated for 24 h with PLX4720 then mitochondrial uncoupler for 48 h, prior to estimation of cell number.
as §4
(§5) Cell number was calculated using the CYQUANT® assay (INVITROGEN™) or crystal violet staining. Lactate measurements were done using the Lactate Assay (BioVision or SIGMA®) per manufacturer's protocols. Indicated cell lines were plated in complete media overnight. Media was changed to serum free-media to avoid interference with the assay for 16 h with either PLX4720 (3 μM) or PLX4032 (1 μM) or vehicle control prior to harvesting cells and measurement of lactate. Results were normalized to cell number. All assays were performed in logarithmically growing cells.

A375P cells [5] = test: Lactate assay after 2,4-DNP; format: cell-based; details: 50 μg/mL, 24 h
Method: (§6) FIG. 7E are histograms showing the effects of 2,4-DNP (50 μg/mL, 24 h) on the lactate levels in the indicated cell lines in vitro.
as §3

UACC257 cells [6] = test: Lactate assay after 2,4-DNP; format: cell-based; details: 50 μg/mL, 24 h
Method: as §6, §3

A375P xenografts = test: Xenograft tumor study; format: in vivo, mice; details: 2,4-DNP 20 mg/kg/day by oral gavage
Method: FIG. 7G are line graphs showing the effect of 2,4-DNP (20 mg/kg/day) or vemurafenib (75 mg/kg/day) on murine melanoma xenografts of A375P cell line (n=7-8 per group). **, p<0.01 compared to vehicle group; ***, p<0.001 compared to vehicle group.
All mouse experiments (tumor nucleation studies and longitudinal drug treatment) were done in accordance with Institutional Animal Care and Use Committee (IACUC) approved animal protocols at Dana-Farber Cancer Institute. Engineered melanoma cells with BRAF(V600E)+vector or +MITF were inoculated subcutaneously at three flank positions (100,000 cells in 100 μL PBS per site) in NCR-FoxNu (male, 6 weeks) animals. Tumor establishment was monitored and experiment was terminated after 10 weeks. For longitudinal tumor treatment studies, melanoma cell lines (A375P and UACC257, both carrying pFUW-mCherry-puro-LUC) were injected subcutaneously into NCR-FoxNu mice (5,000,000 cells in 100 μL PBS with growth factor reduced matrigel). Initial tumor establishment and growth visualized by in vivo imaging by comparing signal obtained seven (7) days apart. […] Treatment with vemurafenib (75 mg/kg/day) or 2,4-DNP (20 mg/kg/day) was administered by oral gavage in 0.5% methyl cellulose and tumor size measured by calipers twice weekly. Mean response measured based on cohorts of 6-7 mice for each arm (and each cell line).

[7] = tested on: BRAF mutant (UACC-62 and UACC-257) melanoma cell lines; test: MITOTRACKER Green flow cytometry (mitochondrial density); format: cell-based; details: 1 μM, 72 h; two BRAF mutant melanomas
Method: (§7) MITOTRACKER® Red, Green and MITOSOX™ were obtained from INVITROGEN™ using manufacturer's recommended protocols. Mean fluorescence was determined by FlowJo software and normalized to vehicle-treated cells.

[8] = tested on: BRAF wild-type (MeWo) melanoma cell line; test: as above; format: cell-based; details: 1 μM, 72 h
Method: as §7

[9] = tested on: BRAF mutant colon cancer cell lines; test: phospho-ERK Western blot; format: cell-based; details: two BRAF mutant colon cancer cell lines; 1 μM, 24 h
Method: FIG. 2B are representative Western blots showing the ERK activity in melanoma or colon cancer cells treated with PLX4720 (1 μM) for 24 h.
(§8) Whole cell lysates were prepared in lysis buffer supplemented with protease and phosphatase inhibitors (Roche). Equal amounts of protein were resolved by electrophoresis on gradient gels (Bio-Rad).
(§9) Melanoma biopsies prior and during treatment were sectioned, embedded in paraffin and stained with the phospho-ERK1/2 antibody (Cell Signaling Technology). PLX4720 was used at 1 μM concentration in all assays, whereas control samples were treated with an equal volume of DMSO.

[10] = tested on: BRAF mutant melanoma M14 cells; test: PGC1β mRNA time course; format: cell-based; details: over 24 hours
[11] = tested on: melanomas with BRAF mutations; test: PGC1α mRNA by quantitative PCR; format: cell-based; details: 1 μM, 24 h
[12] = tested on: BRAF mutant colon cancer cell lines; test: PGC1α mRNA by quantitative PCR; format: cell-based; details: two BRAF mutant colon cancer cell lines; 1 μM, 24 h
[13] = tested on: melanoma cell line that does not contain the BRAF mutation; test: phospho-ERK Western blot; format: cell-based; details: melanoma cell line without BRAF mutation
Method: FIG. 1G are representative Western blots showing activated ERK activity in cells of FIG. 1f using phospho-ERK antibodies.
as §8, §9

PGC1α promoter = PGC1α promoter luciferase assay; format: cell-based; details: UACC-62 cells; 48 h; wild-type promoter
Method: The murine PGC1α promoter was obtained from ADDGENE. Mutant promoters were verified by sequencing. UACC-62 cells were transfected with each promoter construct, pRL-CMV Renilla control and a M-MITF overexpression vector. PLX4720 treatment was for 48 h. Results reported are averages of at least three independent experiments, normalized for transfection efficiency using Renilla luciferase.

BRAF wild-type melanoma = test: PGC1α mRNA by quantitative PCR; format: cell-based; details: 1 μM, 24 h
BRAF mutant melanomas [14] = test: Lactate assay; format: cell-based; details: all BRAF mutant melanomas evaluated; 16 hours
Method: (§10) FIG. 1F are histograms showing the lactate levels in media conditioned from the indicated cell lines treated with PLX4720 or vehicle control for 16 hours.
as §5

[15] = tested on: melanoma cell line that does not contain the BRAF mutation; test: Lactate assay; format: cell-based; details: melanoma cell line without BRAF mutation; 16 hours
Method: as §10, §5

[16] = tested on: BRAF mutant (UACC-62) melanoma cell line; test: MITOTRACKER Red flow cytometry; format: cell-based; details: 1 μM, 72 h
Method: as §7

UACC-257 cells = test: Pigmentation of cell pellets; format: cell-based; details: 72 h
Description: Equal number of cells was pelleted by centrifugation.

[17] = tested on: BRAF mutant melanoma cell line UACC62; test: Electron microscopy, mitochondrial number; format: cell-based; details: 3 μM, 72 hrs
Method: Electron microscopy of UACC-62 melanoma cells treated with vehicle or PLX4720 (3 μM, 72 hrs) was performed at Massachusetts General Hospital's PMB Microscopy Core. Cells were fixed for 1 hr at room temp in 2.0% glutaraldehyde in 0.1 M sodium cacodylate buffer, pH 7.4 (Electron Microscopy Sciences, Hatfield, Pa.). Cells were rinsed in buffer, scraped and pelleted. The pellets were treated with 1.0% osmium tetroxide (EMS) in cacodylate buffer for 1 hr at room temp. They were rinsed and then resuspended in 2.0% agarose for ease of handling. Small pieces were dehydrated through a graded series of ethanol, then infiltrated with eponate resin (Ted Pella, Redding, Calif.) overnight at room temp. They were then embedded in resin overnight at 60° C. Thin sections were cut on a Leica UC6 ultramicrotome, collected onto formvar-carbon coated slot grids and post-stained with uranyl acetate and lead citrate. […] Images were collected with an AMT digital imaging system (Advanced Microscopy Techniques, Danvers, Mass.). Mitochondrial density was calculated by morphometrics by standard protocols.

[18] = tested on: BRAF mutant (UACC-62) melanoma cell line; test: MITOSOX fluorescence assay; format: cell-based; details: 1 μM, 72 h
Method: as §7

[19] = tested on: BRAF(V600E) parental cells; test: ATP assay in isogenic cells; format: cell-based, human; details: 1 μM, 24 h
Method: FIG. 6G are histograms showing the ATP levels, normalized to cell number in BRAF(V600E)+vector and BRAF(V600E)+MITF treated with PLX4032 (1 μM) for 24 h. ***, p<0.001 compared to control cells.
as §2

BRAF mutant melanomas [20] = test: Gene set enrichment analysis of melanoma cell lines treated with vemurafenib; format: cell-based; details: PLX4032 treated melanoma cell lines (n = 6)

## O=[N+]([O-])c1ccc(O)c([N+](=O)[O-])c1 [2,4-DNP, 2,4-dinitrophenol]
A375P cells [1]
  decrease in ATP: not
UACC257 cells [2]
  ATP: decrease
[3]
  sensitivity of BRAF(V600E)+MITF cells versus BRAF(V600E)+vector cells (cell number): significantly more sensitive
[4]
  sensitivity of melanoma cells compared to primary melanocytes (cell number): more sensitive to DNP than primary melanocytes, except A375P
UACC257 xenografts
  tumor growth: profoundly inhibited tumor growth
Melanoma cells (M14)
  Combination Index with PLX4720 (additively enhanced the efficacy of PLX4720): 0.9
A375P cells [5]
  increases in lactate: not
UACC257 cells [6]
  lactate: increases
A375P xenografts
  tumor growth: insensitive

## CCCS(=O)(=O)Nc1ccc(F)c(C(=O)c2c[nH]c3ncc(Cl)cc23)c1F [PLX4720, N-[3-[(5-Chloro-1H-pyrrolo[2,3-b]pyridin-3-yl)carbonyl]-2,4-difluorophenyl]-1-propanesulfonamide]
[7]
  mitochondrial density (MITOTRACKER Green): increased
[8]
  mitochondrial density (MITOTRACKER Green): did not affect
[9]
  ERK phosphorylation: suppression of ERK phosphorylation similar to that seen in melanomas
[10]
  PGC1β mRNA: no change
[11]; M14 cells, control siRNA
  PGC1α mRNA: strongly induced
[11]; UACC62 cells, control siRNA
  induction of PGC1α mRNA: 3 fold
[11]; all melanomas with BRAF mutations
  increase in PGC1α mRNA: 3-14 fold
[12]
  PGC1α expression: no effect
[13]
  ERK signaling: inability of PLX4720 to suppress ERK signaling
PGC1α promoter
  activity of PGC1α promoter upstream of luciferase: induction of the wild-type promoter
BRAF wild-type melanoma
  expression of PGC1α: No change
BRAF mutant melanomas [14]
  lactate levels: reduced
[15]
  lactate levels: did not change
[16]
  MITOTRACKER Red fluorescence (mitochondrial activity and mass): induced
UACC-257 cells
  pigmentation: increased pigmentation
[17]
  number of mitochondria per cell: significant increase
[18]
  production of mitochondrial oxidative stress (MITOSOX): increased

## CCCS(=O)(=O)Nc1ccc(F)c(C(=O)c2c[nH]c3ncc(-c4ccc(Cl)cc4)cc23)c1F [vemurafenib]
[19]
  drop in ATP: 42%
BRAF mutant melanomas [20]; gene set size 15
  ES, CANCERDRUGS_PROBCELL_UP: −0.6598
  NES, CANCERDRUGS_PROBCELL_UP: −1.791
BRAF mutant melanomas [20]; gene set size 17
  ES, CAMPTOTHECIN_PROBCELL_UP: −0.6506
  NES, CAMPTOTHECIN_PROBCELL_UP: −1.802
BRAF mutant melanomas [20]; gene set size 19
  ES, ATP_SYNTHESIS: −0.6141
  ES, FLAGELLAR_ASSEMBLY: −0.6141
  ES, TYPE_III_SECRETION_SYSTEM: −0.6141
  NES, ATP_SYNTHESIS: −1.75
  NES, FLAGELLAR_ASSEMBLY: −1.8
  NES, TYPE_III_SECRETION_SYSTEM: −1.739
BRAF mutant melanomas [20]; gene set size 20
  ES, CITRATE_CYCLE_TCA_CYCLE: −0.8827
  ES, PHOTOSYNTHESIS: −0.6181
  NES, CITRATE_CYCLE_TCA_CYCLE: −2.017
  NES, PHOTOSYNTHESIS: −1.797
BRAF mutant melanomas [20]; gene set size 23
  ES, BRENTANI_TRANSPORT_OF_VESICLES: −0.604
  NES, BRENTANI_TRANSPORT_OF_VESICLES: −1.772
BRAF mutant melanomas [20]; gene set size 25
  ES, HSA00020_CITRATE_CYCLE: −0.6303
  NES, HSA00020_CITRATE_CYCLE: −1.94
BRAF mutant melanomas [20]; gene set size 29
  ES, HSA00640_PROPANOATE_METABOLISM: −0.5472
  NES, HSA00640_PROPANOATE_METABOLISM: −1.733
BRAF mutant melanomas [20]; gene set size 35
  ES, VALINE_LEUCINE_AND_ISOLEUCINE_DEGRADATION: −0.5231
  NES, VALINE_LEUCINE_AND_ISOLEUCINE_DEGRADATION: −1.732
BRAF mutant melanomas [20]; gene set size 42
  ES, HSA000280_VALINE_LEUCINE_AND_ISOLEUCINE_DEGRADATION: −0.5627
  NES, HSA000280_VALINE_LEUCINE_AND_ISOLEUCINE_DEGRADATION: −1.945
BRAF mutant melanomas [20]; gene set size 55
  ES, OXIDATIVE_PHOSPHORYLATION: −0.5114
  NES, OXIDATIVE_PHOSPHORYLATION: −1.891
BRAF mutant melanomas [20]; gene set size 100
  ES, HSA00190_OXIDATIVE_PHOSPHORYLATION: −0.4531
  NES, HSA00190_OXIDATIVE_PHOSPHORYLATION: −1.845
BRAF mutant melanomas [20]; gene set size 227
  ES, PENG_GLUTAMINE_UP: −0.3896
  NES, PENG_GLUTAMINE_UP: −1.777

Reference: patent US9937161B2, “Combinatorial compositions and methods for treatment of melanoma” (THE GENERAL HOSPITAL CORPORATION, priority 2013, dated 2018)
